Measurements published in patent US5834511A, “DL- DI- or tri-hydroxyphenylglycine alkyl esters for the treatment of inflammatory and allergic conditions” (Ciba Specialty Chemicals Corporation, priority 1994, dated 1998).
Where two headings read alike, the source gives them in different places.

What was measured:
[1] = test system: writhing reactions induced by acetic acid; assay: Acetic acid-induced writhing syndrome; format: in vivo, mouse (CBA); settings: i.p., 5×10^-5 mol/kg, 30 minutes before inducement; recorded over 20 minutes
Description: The writhing reactions are induced by i.p. (=intraperitoneal) injection of 0.1 ml of 1% acetic acid/10 g and recorded over a period of 20 minutes after injection.

[2] = test system: hydrogen peroxide formation in casein-stimulated peritoneal granulocytes of rats; assay: Formation of hydrogen peroxide induced by opsonated zymosan in casein-stimulated peritoneal granulocytes; format: cell-based, rat; settings: 5×10^6 cells/ml, 30 min incubation
[3] = test system: carrageenan oedema; assay: Carrageenan oedema of the rat paw after systemic application; format: in vivo, rat (Wistar); settings: administered simultaneously with carrageenan, paw diameter 3 hours after inducing the oedema
[4] = target: T1, 5-LOX (Oryctolagus cuniculus, UniProt P12530); assay: Lipoxygenase activity, oxygraphic (Table 4 column headed 5-LOX; method describes 15-lipoxygenase); format: biochemical, rabbit
T1 construct: 15-lipoxygenase from rabbit reticulocytes; from tissue; host or cells: rabbit reticulocytes
T1 sequence (P12530 2-663): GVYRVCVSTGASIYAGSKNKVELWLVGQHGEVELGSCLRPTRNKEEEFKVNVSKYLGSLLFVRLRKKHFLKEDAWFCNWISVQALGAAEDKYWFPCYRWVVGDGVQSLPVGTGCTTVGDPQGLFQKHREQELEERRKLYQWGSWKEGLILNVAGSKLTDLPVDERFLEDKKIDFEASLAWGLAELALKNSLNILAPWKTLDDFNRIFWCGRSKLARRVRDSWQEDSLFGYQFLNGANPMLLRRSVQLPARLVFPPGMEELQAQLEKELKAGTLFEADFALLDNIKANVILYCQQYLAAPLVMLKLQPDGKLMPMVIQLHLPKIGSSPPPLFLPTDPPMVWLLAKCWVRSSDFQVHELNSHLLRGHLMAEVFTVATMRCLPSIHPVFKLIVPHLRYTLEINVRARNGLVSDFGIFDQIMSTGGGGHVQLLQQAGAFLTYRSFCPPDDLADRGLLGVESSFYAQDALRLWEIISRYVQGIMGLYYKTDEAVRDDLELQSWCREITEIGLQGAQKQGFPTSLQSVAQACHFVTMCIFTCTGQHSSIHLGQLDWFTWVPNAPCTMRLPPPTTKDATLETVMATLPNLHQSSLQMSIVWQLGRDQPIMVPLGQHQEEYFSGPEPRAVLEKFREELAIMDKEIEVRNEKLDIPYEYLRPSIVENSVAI
Description: Prostaglandin H synthase is prepared from the seminal vesicles of sheep (F. S. Van der Ouderaa, M. Buytenhek.: Methods Enzymol. 86, 60-68 (1982)), and 15-lipoxygenase from rabbit reticulocytes (T. Schewe, R. Wiesner, S. M. Rapoport: Methods Enzymol. 71, 430-441 (1981)). Both enzymatic activities are measured oxygraphically at 25° C.
The 15-lipoxygenase activity is measured using 265 μmol/l of potassium linoleate as substrate in 0.1 molar phosphate puffer at pH 7.4 and 0.2% sodium cholate (T. Schewe, H. Kuhn, S. M. Rapoport, in: Prostaglandins and Related Substances--A Practical Approach pp. 229-242, C. Benedetto, R. G. McDonald-Gibson, S. Nigam, T. F. Slater (Eds.); IRL Press, Oxford, Wash. (1987)). The compounds are freshly dissolved in 2-methoxyethanol and preincubated for 5 minutes with the enzyme preparation, and the reaction is started by addition of substrate.

[5] = target: T2, 5-lipoxygenase (Homo sapiens, UniProt P09917); assay: Formation of 5-HETE by 5-lipoxygenase of human polymorphonuclear leucozytes; format: cell-based; settings: 1-^14 C-arachidonic acid (10 μmol/l)
T2 construct: 5-lipoxygenase of human polymorphonuclear leucozytes; endogenous in cells; host or cells: human polymorphonuclear leukocytes
T2 sequence (P09917 1-674): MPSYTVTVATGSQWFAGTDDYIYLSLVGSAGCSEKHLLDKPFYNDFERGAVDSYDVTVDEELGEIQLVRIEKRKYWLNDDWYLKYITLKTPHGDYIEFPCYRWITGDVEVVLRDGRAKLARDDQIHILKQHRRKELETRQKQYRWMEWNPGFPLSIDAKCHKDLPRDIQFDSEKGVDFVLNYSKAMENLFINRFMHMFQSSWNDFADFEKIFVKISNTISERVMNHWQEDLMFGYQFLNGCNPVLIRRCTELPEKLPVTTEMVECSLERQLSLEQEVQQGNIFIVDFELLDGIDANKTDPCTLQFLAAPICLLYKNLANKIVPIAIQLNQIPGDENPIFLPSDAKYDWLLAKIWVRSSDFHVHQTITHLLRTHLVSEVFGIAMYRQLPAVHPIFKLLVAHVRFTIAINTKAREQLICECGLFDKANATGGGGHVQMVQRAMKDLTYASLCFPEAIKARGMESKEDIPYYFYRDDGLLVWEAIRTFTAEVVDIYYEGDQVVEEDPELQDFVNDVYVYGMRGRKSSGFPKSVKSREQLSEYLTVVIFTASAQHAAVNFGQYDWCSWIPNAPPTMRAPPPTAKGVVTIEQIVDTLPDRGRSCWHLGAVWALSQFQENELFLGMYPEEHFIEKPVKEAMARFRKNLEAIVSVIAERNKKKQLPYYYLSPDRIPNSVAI

[6] = test system: ear oedema induced by croton oil; assay: Croton oil ear oedema, topical application (antioedematous activity); format: in vivo, mouse (AB); settings: 2×10 μl of a 5% ethanolic solution 1 hour after croton oil, 6 hours after inducing oedema
Description: Antioedamatous activity The assays for determining the antioedamatous activity of the novel compounds of formulae (101) and (102) prepared in Examples 1 and 2 are carried out on male AB mice (18-22 g, 9 animals per group). The ear oedema is induced by applying 2×10 μl of croton oil (1% in acetone) to the ears of the mice. After 1 hour the novel compounds (2×10 μl of a 5% ethanolic solution of each compound) are applied. After a further 5 hours (6 hours after inducing oedema) the animals are sacrificed, and pieces of ear tissue having a diameter of 8 mm are obtained. The oedema weight is determined as the difference between the contralateral ear. The percentage inhibition is calculated from a comparison with the control animals. (Table 2).

[7] = target: T3, PGH Synthase (Ovis aries, UniProt P05979); assay: Prostaglandin H synthase activity, oxygraphic; format: biochemical, sheep; settings: 30 μmol/l arachidonic acid, pH 8.0, 25° C., 5 minutes preincubation
T3 construct: prepared from the seminal vesicles of sheep; from tissue; host or cells: sheep seminal vesicles, microsomal enzyme preparation
T3 sequence (P05979 25-600): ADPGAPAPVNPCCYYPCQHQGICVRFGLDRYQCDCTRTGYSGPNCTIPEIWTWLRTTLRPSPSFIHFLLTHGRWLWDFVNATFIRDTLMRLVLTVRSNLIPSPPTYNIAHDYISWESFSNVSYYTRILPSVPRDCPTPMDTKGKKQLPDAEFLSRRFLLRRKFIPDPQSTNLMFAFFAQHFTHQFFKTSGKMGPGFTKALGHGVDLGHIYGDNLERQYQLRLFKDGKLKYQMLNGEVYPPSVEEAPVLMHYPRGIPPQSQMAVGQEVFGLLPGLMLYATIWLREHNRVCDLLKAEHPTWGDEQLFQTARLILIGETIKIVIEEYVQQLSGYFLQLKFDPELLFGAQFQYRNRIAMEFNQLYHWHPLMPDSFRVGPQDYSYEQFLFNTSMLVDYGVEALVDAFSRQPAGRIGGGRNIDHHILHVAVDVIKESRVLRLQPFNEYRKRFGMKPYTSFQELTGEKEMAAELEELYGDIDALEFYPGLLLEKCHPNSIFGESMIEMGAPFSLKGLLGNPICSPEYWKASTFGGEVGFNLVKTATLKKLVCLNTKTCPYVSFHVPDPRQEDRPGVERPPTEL
Description: Both enzymatic activities are measured oxygraphically at 25° C.

[8] = Rattus norvegicus, ip, read-out: ED50

## CC(=O)Oc1ccccc1C(=O)O [acetylsalicylic acid, reference compound]
[1]
  Inhibition: 32.3%
[2]
  IC50: > 100 µM
[3]; i.p.
  ED50: 15.2 10^-4 mol/kg
[4]; 265 μmol/l potassium linoleate, pH 7.4, 25° C., 5 minutes preincubation (method of 15-lipoxygenase), read-out: 5-LOX IC50
  IC50: > 1000 µM

## CCCCCCCCOC(=O)C(N)c1cc(O)c(O)c(O)c1 (racemic) [compound of formula (102)]
[5]
  IC50: 1.3 µM
[6]
  Inhibition: 45.7%
[7]
  IC50: 85 µM
[1]
  Inhibition: 80.7%
[2]; Rattus norvegicus, 0.5 h
  IC50: 5.3 µM
[3]; [8]
  ED50: 80 µmol/kg
[4]
  IC50: 250 µM

## CCCCCCCCOC(=O)C(N)c1ccc(O)c(O)c1.Cl (racemic) [compound of formula (101), DL-3,4-dihydroxyphenylglycine octyl ester hydrochloride]
[5]
  IC50: 6.9 µM
[6]
  Inhibition: 23.9%
[7]
  IC50: 110 µM
[1]
  Inhibition: 80.2%
[2]; Rattus norvegicus, 0.5 h
  IC50: 2.3 µM
[3]; [8]
  ED50: 150 µmol/kg
[4]
  IC50: 3.9 µM
